# In patent publication US7498436B2, “Substituted hydroxyethylamines” (Pharmacia & Upjohn Company LLC, priority 2002, dated 2009):
row,melting point,Compound
1,199 to 201 °C,CCCN(CCC)C(=O)c1cc(C(=O)N[C@@H](Cc2ccccc2)[C@H](O)CNCc2cccc(OC)c2)cc(-c2ccsc2)c1.Cl
2,230 to 233 °C,CCCN(CCC)C(=O)c1cc(C(=O)N[C@@H](Cc2cc(F)cc(F)c2)[C@H](O)CNCc2cccc(OC)c2)cc(-c2ccccc2)c1.Cl
3,205 to 209 °C,CCCN(CCC)C(=O)c1cc(C(=O)N[C@@H](Cc2ccccc2)[C@H](O)CNCc2cccc(OC)c2)cc(-c2ccc(OC)cc2)c1.Cl
4,214 to 219 °C,CCCN(CCC)C(=O)c1cc(C(=O)N[C@@H](Cc2ccccc2)[C@H](O)CNCc2cccc(OC)c2)cc(-c2ccccc2)c1.Cl
